The values below come from US9388142B2, “Quinazolinone derivatives as PARP inhibitors” (MERCK PATENT GMBH, priority 2012, dated 2016).

Where a name gives a salt, the structure may show the parent alone. Read-outs that look alike come from different tables or passages of the source. A value given as a limit tells only on which side of the number the result lay.

Experiment [1] deals with T1, GST-tagged Tnks-1 (1023-1327 aa) (Homo sapiens, UniProt O95271).
T1 construct: GST-tagged Tnks-1 (1023-1327 aa, prepared in-house); made in house
In words: TNKS1 activity ELISA (autoparsylation assay). Particulars: read-out: IC50 TNKS1 ELISA. It counts as biochemical. As to the method:
Description of the TNKS1 and TNKS2 ELISA Assay
Then the activity assay with biotinylated NAD is performed in the absence/presence of the compounds. During the enzymatic reaction GST tagged TNKS transfers biotinylated ADP-ribose to itself from biotinylated NAD as co-substrate. For the detection streptavidin-HRP conjugate is added that binds to the biotinylated TNKS and is thereby captured to the plates. The amount of biotinylated resp. autoparsylated TNKS is detected with a luminescence substrate for HRP. The level of the luminescence signal correlates directly with the amount of autoparsylated TNKS and therefore with activity of TNKS.
The activity ELISA is performed in 384 well Glutathione coated microtiter plates (Express capture Glutathione coated plate, Biocat, Heidelberg, Germany). The plates are pre-equilibrated with PBS. […] The plates are washed 3 times with PBS-Tween-20. The wells are blocked by incubation at room temperature for 20 minutes with 50 μl blocking buffer (PBS, 0.05% Tween-20, 0.5% BSA). Afterwards the plates are washed 3 times with PBS-Tween-20. […] The reaction is stopped by 3 times washing with PBS-Tween-20. For the detection 50 μl of 20 ng/μl Streptavidin, HRP conjugate (MoBiTec, Gottingen, Germany) in PBS/0.05% Tween-20/0.01% BSA are added and the plates are incubated for 30 minutes at room temperature. After three times washing with PBS-Tween-20 50 μl of SuperSignal ELISA Femto Maximum sensitivity substrate solution (ThermoFisherScientific (Pierce), Bonn, Germany) are added. Following a 1 minute incubation at room temperature luminescence signals are measured with an Envision multimode reader (Perkin Elmer LAS Germany GmbH) at 700 nm. The full value used is the inhibitor-free reaction. […] The inhibitory values (IC50) are determined using either the program Symyx Assay Explorer® or Condosseo® from GeneData.
In general terms: In an ELISA, binding on a coated surface is turned into a signal by an enzyme label.

The target in experiment [2] is T2, GST-tagged Tankyrase-1 (1023-1327 aa) (Homo sapiens, UniProt O95271).
T2 construct: GST-tagged Tankyrase-1 (1023-1327 aa)
Nature of the experiment: biochemical. The text has this: aq (aqueous), h (hour), g (gram), L (liter), mg (milligram), MHz (Megahertz), min. (minute), mm (millimeter), mmol (millimole), mM (millimolar), m.p. (melting point), eq (equivalent), mL (milliliter), L (microliter), ACN (acetonitrile), AcOH (acetic acid), CDCl3 (deuterated chloroform), CD3OD (deuterated methanol), CH3CN (acetonitrile), c-hex (cyclohexane), DCC (dicyclohexyl carbodiimide), DCM (dichloromethane), DIC (diisopropyl carbodiimide), DIEA (diisopropylethyl-amine), DMF (dimethylformamide), DMSO (dimethylsulfoxide), DMSO-d6 (deuterated dimethylsulfoxide), EDC (1-(3-dimethyl-amino-propyl)-3-ethylcarbodiimide), ESI (Electro-spray ionization), EtOAc (ethyl acetate), Et2O (diethyl ether), EtOH (ethanol), HATU (dimethylamino-([1,2,3]triazolo[4,5-b]pyridin-3-yloxy)-methylene]-dimethylammonium hexafluorophosphate), HPLC (High Performance Liquid Chromatography), i-PrOH (2-propanol), K2CO3 (potassium carbonate), LC (Liquid Chromatography), MeOH (methanol), MgSO4 (magnesium sulfate), MS (mass spectrometry), MTBE (Methyl tert-butyl ether), NaHCO3 (sodium bicarbonate), NaBH4 (sodium borohydride), NMM (N-methyl morpholine), NMR (Nuclear Magnetic Resonance), PyBOP (benzotriazole-1-yl-oxy-trispyrrolidino-phosphonium hexafluorophosphate), RT (room temperature), Rt (retention time), SPE (solid phase extraction), TBTU (2-(1-H-benzotriazole-1-yl)-1,1,3,3-tetramethyluromium tetrafluoro borate), TEA (triethylamine), TFA (trifluoroacetic acid), THF (tetrahydrofuran), TLC (Thin Layer Chromatography), UV (Ultraviolet). Description of the In Vitro Assays Abbreviations: GST=Glutathione-S-transferase FRET=Fluorescence resonance energy transfer HTRF®=(homogenous time resolved fluorescence) HEPES=4-(2-hydroxyethyl)-1-piperazine ethanesulfonic acid buffer DTT=Dithiothreitol BSA=bovine serum albumin CHAPS=detergent; CHAPS=3[(3-cholamidopropyl)dimethylammonio]-1-propanesulfonate Streptavidin-XLent® is a high grade streptavidin-XL665 conjugate for which the coupling conditions have been optimized to yield a conjugate with enhanced performances for some assays, particularly those requiring high sensitivity.
The autoparsylation assay is run in two steps: the enzymatic reaction in which GST-tagged Tankyrase-1, resp Tankyrase-2 transferred biotinylated ADP-ribose to itself from biotinylated NAD as co-substrate and the detection reaction where a time resolved FRET between cryptate labelled anti-GST bound to the GST tag of the enzyme and Xlent® labelled-streptavidin bound the biotin-parsylation residue is analysed. The autoparsylation activity was detectable directly via the increase in HTRF signal.
The autoparsylation assay is performed as 384-well HTRF® (Cisbio, Codolet, France) assay format in Greiner low volume nb 384-well microtiter plates and is used for high throughput screen. […] The reaction is stopped by the addition of 1 μl 50 mM EDTA solution. […] The ratio of the emission signals is determined. The full value used is the inhibitor-free reaction. […] The inhibitory values (IC50) are determined using either the program Symyx Assay Explorer® or Condosseo® from GeneData.

A further experiment deals with T3, His-tagged Parp-1 (Homo sapiens, UniProt P09874).
T3 construct: purchased Enzo Life Sciences GmbH, Lörrach, Germany
Nature of the experiment: PARP-1 autoparsylation assay (HTRF). Format: biochemical. The text has this: Description of the PARP1 Assay
Biochemical Activity Testing of PARP-1: Autoparsylation Assay
The autoparsylation assay is run in two steps: the enzymatic reaction in which His-tagged Parp-1 transfers biotinylated ADP-ribose/ADP-ribose to itself from biotinylated NAD/NAD as co-substrate and the detection reaction where a time resolved FRET between cryptate labelled anti-His antibody bound to the His tag of the enzyme and Xlent® labelled-streptavidin bound the biotin-parsylation residue is analysed. The autoparsylation activity is detectable directly via the increase in HTRF signal.
The autoparsylation assay is performed as 384-well HTRF® (Cisbio, Codolet, France) assay format in Greiner low volume nb 384-well microtiter plates. 35 nM His-tagged Parp-1 (human, recombinant, Enzo Life Sciences GmbH, Lörrach, Germany) and a mixture of 125 nM bio-NAD (Biolog, Life science Inst., Bremen, Germany) and 800 nM NAD as co-substrate are incubated in a total volume of 6 μl (100 mM Tris/HCl, 4 mM Mg-chloride, 0.01% IGEPAL® CA630, 1 mM DTT, 0.5% DMSO, pH 8, 13 ng/μl activated DNA (BPS Bioscience, San Diego, US)) in the absence or presence of the test compound (10 dilution concentrations) for 150 min at 23° C. The reaction is stopped by the addition of 4 μl of the Stop/detection solution (70 nM SA-Xlent® (Cisbio, Codolet, France), 2.5 nM Anti-His-K® (Eu-labelled anti-His, Cisbio, Codolet, France) in 50 mM HEPES, 400 mM KF, 0.1% BSA, 20 mM EDTA, pH 7.0). After 1 h incubation at room temperature the HTRF iss measured with an Envision multimode reader (Perkin Elmer LAS Germany GmbH) at excitation wavelength 340 nm (laser mode) and emission wavelengths 615 nm and 665 nm. The ratio of the emission signals is determined. The full value used is the inhibitor-free reaction. The pharmacological zero value used is Olaparib (LClabs, Woburn, US) in a final concentration of 1 The inhibitory values (IC50) are determined using either the program Symyx Assay Explorer® or Condosseo® from GeneData.
Background: In TR-FRET formats the signal depends on donor and acceptor labels being close together.

Where [3] appears, read: read-out: IC50 tankyrase 1 (enzyme assay).

T1 sequence (O95271 1023-1327): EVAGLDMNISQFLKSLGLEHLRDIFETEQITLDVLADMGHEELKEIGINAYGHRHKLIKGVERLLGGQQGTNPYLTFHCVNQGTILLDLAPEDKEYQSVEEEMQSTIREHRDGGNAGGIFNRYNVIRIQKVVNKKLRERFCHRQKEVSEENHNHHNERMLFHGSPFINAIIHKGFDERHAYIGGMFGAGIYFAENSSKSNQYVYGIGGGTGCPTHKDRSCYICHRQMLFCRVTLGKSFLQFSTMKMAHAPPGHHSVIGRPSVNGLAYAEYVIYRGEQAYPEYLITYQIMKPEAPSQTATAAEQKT
T2 sequence (O95271 1023-1327): as above
T3 sequence (P09874 whole entry): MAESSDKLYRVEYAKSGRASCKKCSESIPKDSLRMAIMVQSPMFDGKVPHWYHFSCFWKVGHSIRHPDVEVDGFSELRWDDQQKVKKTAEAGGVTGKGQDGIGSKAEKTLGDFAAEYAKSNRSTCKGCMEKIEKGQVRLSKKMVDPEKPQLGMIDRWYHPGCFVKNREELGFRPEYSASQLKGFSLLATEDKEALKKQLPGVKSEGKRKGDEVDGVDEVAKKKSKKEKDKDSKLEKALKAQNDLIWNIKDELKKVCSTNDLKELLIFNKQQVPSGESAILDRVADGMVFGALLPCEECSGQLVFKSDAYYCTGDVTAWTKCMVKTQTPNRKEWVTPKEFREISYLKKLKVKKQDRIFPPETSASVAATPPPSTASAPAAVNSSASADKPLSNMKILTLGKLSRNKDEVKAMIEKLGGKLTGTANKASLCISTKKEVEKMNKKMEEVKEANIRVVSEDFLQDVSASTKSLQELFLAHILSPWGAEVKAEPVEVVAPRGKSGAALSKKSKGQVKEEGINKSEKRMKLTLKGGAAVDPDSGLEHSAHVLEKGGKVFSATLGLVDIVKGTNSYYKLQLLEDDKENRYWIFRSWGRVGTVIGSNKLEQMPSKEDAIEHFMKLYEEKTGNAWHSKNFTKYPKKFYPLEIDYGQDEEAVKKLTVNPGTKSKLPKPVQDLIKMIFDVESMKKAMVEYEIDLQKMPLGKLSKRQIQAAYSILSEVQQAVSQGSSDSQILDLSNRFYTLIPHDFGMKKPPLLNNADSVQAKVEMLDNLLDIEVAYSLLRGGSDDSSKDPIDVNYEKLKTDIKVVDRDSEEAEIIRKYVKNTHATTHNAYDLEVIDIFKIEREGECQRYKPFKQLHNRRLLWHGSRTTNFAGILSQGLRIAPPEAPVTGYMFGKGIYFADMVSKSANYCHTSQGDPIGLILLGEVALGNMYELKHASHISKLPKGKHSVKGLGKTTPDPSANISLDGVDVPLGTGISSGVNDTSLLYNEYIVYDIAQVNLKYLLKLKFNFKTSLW

Broadly, the IC50 is the point on the concentration scale where inhibition reaches its midpoint. With `CC(C)(O)c1ccc(-c2nc3ccc(F)cc3c(=O)[nH]2)cc1` [Compound A1, 6-fluoro-2-[4-(1-hydroxy-1-methyl-ethyl)-phenyl]-3H-quinazolin-4-one], the IC50 in experiment [1] is less than 300 nM; in experiment [2] (setting [3]), less than 300 nM; on His-tagged Parp-1, 300 to 3000 nM.

As to `COc1cccc2c(=O)[nH]c(-c3ccc(C(C)(C)O)cc3)nc12` [Compound A2, 2-[4-(1-hydroxy-1-methyl-ethyl)-phenyl]-8-methoxy-3H-quinazolin-4-one], the figures for the IC50 (in experiment [1]; in experiment [2] (setting [3]); at His-tagged Parp-1) were less than 300 nM, less than 300 nM and 300 to 3000 nM, respectively.

For `CC(C)(O)c1ccc(-c2nc3c(F)cccc3c(=O)[nH]2)cc1` [Compound A3, 8-fluoro-2-[4-(1-hydroxy-1-methyl-ethyl)-phenyl]-3H-quinazolin-4-one], the IC50 is less than 300 nM in experiment [1], less than 300 nM in experiment [2] (setting [3]) and 300 to 3000 nM against His-tagged Parp-1.

Take `CC(C)(O)c1ccc(-c2nc3cccc(F)c3c(=O)[nH]2)cc1` [Compound A4, 5-fluoro-2-[4-(1-hydroxy-1-methyl-ethyl)-phenyl]-3H-quinazolin-4-one]: the IC50 is less than 300 nM in experiment [1], less than 300 nM in experiment [2] (setting [3]) and 300 to 3000 nM against His-tagged Parp-1.

Take `CC(C)(O)c1ccc(-c2nc3ccc(Cl)cc3c(=O)[nH]2)cc1` [Compound A5, 6-chloro-2-[4-(1-hydroxy-1-methyl-ethyl)-phenyl]-3H-quinazolin-4-one]: the IC50 in experiment [1] and in experiment [2] (setting [3]) was less than 300 nM each time.

For `CC(C)(O)c1ccc(-c2nc3c(Cl)cccc3c(=O)[nH]2)cc1` [Compound A6, 8-chloro-2-[4-(1-hydroxy-1-methyl-ethyl)-phenyl]-3H-quinazolin-4-one], the concentration for half-maximal inhibition (IC50) was less than 300 nM in experiment [1], less than 300 nM in experiment [2] (setting [3]) and 300 to 3000 nM against His-tagged Parp-1.

As to `CC(C)(OCCO)c1ccc(-c2nc3ccc(F)cc3c(=O)[nH]2)cc1` [Compound A7, 6-fluoro-2-{4-[1-(2-hydroxy-ethoxy)-1-methyl-ethyl]-phenyl}-3H-quinazolin-4-one], the IC50 in experiment [1] was less than 300 nM; in experiment [2] (setting [3]), less than 300 nM; at His-tagged Parp-1, 300 to 3000 nM.

Consider `COCCOC(C)(C)c1ccc(-c2nc3ccc(F)cc3c(=O)[nH]2)cc1` [Compound A8, 6-fluoro-2-{4-[1-(2-methoxy-ethoxy)-1-methyl-ethyl]-phenyl}-3H-quinazolin-4-one], for which the IC50 in experiment [1] was less than 300 nM; in experiment [2] (setting [3]), 300 to 3000 nM; at His-tagged Parp-1, 3000 to 50000 nM.

Regarding `CC(C)(C)c1ccc(-c2nc3ccc(F)cc3c(=O)[nH]2)cc1` [Compound A9, 2-(4-tert-butyl-phenyl)-6-fluoro-3H-quinazolin-4-one], the IC50 in experiment [1] is less than 300 nM; in experiment [2] (setting [3]), less than 300 nM; against His-tagged Parp-1, 3000 to 50000 nM.

Consider `CN1CCN(c2ccc(-c3nc4ccc(F)cc4c(=O)[nH]3)cc2)CC1` [Compound A10, 6-fluoro-2-[4-(4-methyl-piperazin-1-yl)-phenyl]-3H-quinazolin-4-one], for which the figures for the IC50 (in experiment [1]; in experiment [2] (setting [3]); against His-tagged Parp-1) were less than 300 nM, less than 300 nM and 300 to 3000 nM, respectively.

`CC(C)(O)c1ccc(-c2nc3c(F)cc(F)cc3c(=O)[nH]2)cc1` [Compound A11, 6,8-difluoro-2-[4-(1-hydroxy-1-methyl-ethyl)phenyl]-3H-quinazolin-4-one]: the IC50 on His-tagged Parp-1 fell in the range of 300 to 3000 nM.

For `CC(C)(O)c1ccc(-c2nc3ccc(F)c(F)c3c(=O)[nH]2)cc1` [Compound A12, 5,6-difluoro-2-[4-(1-hydroxy-1-methyl-ethyl)phenyl]-3H-quinazolin-4-one], the IC50 in experiment [1] was less than 300 nM; in experiment [2] (setting [3]), less than 300 nM; against His-tagged Parp-1, 300 to 3000 nM.

`CC(C)(O)c1ccc(-c2nc3ccc(F)cc3c(=O)[nH]2)nc1` [Compound A13, 6-fluoro-2-[5-(1-hydroxy-1-methyl-ethyl)-2-pyridyl]-3H-quinazolin-4-one]: in experiment [2] (setting [3]), the IC50 lay within 300 to 3000 nM.

On to `Cc1cc(F)cc2c(=O)[nH]c(-c3ccc(C(C)(C)OCCO)cc3)nc12` [Compound A21, 6-fluoro-2-{4-[1-(2-hydroxy-ethoxy)-1-methyl-ethyl]-phenyl}-8-methyl-3H-quinazolin-4-one], for which the IC50 in experiment [1] was less than 300 nM; in experiment [2] (setting [3]) it was 300 to 3000 nM; against His-tagged Parp-1, 300 to 3000 nM.

Consider `CC(C)(O)c1ccc(-c2nc3cccc(Cl)c3c(=O)[nH]2)cc1` [Compound A23, 5-chloro-2-[4-(1-hydroxy-1-methyl-ethyl)-phenyl]-3H-quinazolin-4-one], for which the values for the IC50 in experiment [1] and in experiment [2] (setting [3]) were less than 300 nM and 300 to 3000 nM, respectively.

For the compound `CC(C)(O)c1ccc(-c2nc3c(F)ccc(F)c3c(=O)[nH]2)cc1` [Compound A27, 5,8-difluoro-2-[4-(1-hydroxy-1-methyl-ethyl)-phenyl]-3H-quinazolin-4-one], the IC50 in experiment [2] (setting [3]) was less than 300 nM.

In experiment [2], `O=c1[nH]c(-c2ccc(C3CCNCC3)cc2)nc2c(F)cc(F)cc12` [Compound A34, 6,8-difluoro-2-(4-piperidin-4-yl-phenyl)-3H-quinazolin-4-one hydrochloride] yielded an IC50 of less than 300 nM.
